Marks after values point to notes of the source that are not given here.
Experiments:
[1] = system: Lean, male Harlan SPRAGUE DAWLEY (HSD) rats; assay: Example 3: chronic amylin infusion, lean rats; type: in vivo, rat; parameters: Fat: dose or concentration left out as unconfirmed
Description: (§1) Lean, male Harlan SPRAGUE DAWLEY® (HSD) (Harlan 7012) rats were maintained on “standard chow” (˜5% calories from fat).
(§2) Food intake and body weight were recorded daily (FIGS. 5, 6A, 6B, 7, 8A, and 8B).
(§3) On the final day of the experiment, rats were deeply anaesthetized and sacrificed by cardiac puncture. Plasma triglycerides, glucose, and cholesterol were measured on a COBAS Mira plasma Analyzer (Roche). Plasma leptin and insulin were measured using Linco Research kits. (See, FIGS. 9A-9F and 10A-10E.) Body composition was measured by chemical analysis (Covance Laboratories, Madison, Wis.). Fat pad weights of the epididymal, retroperitoneal, subcutaneous, and perirenal fat pads (all unilateral; analysis only done in DIO animals) were carefully dissected and weighed (FIGS. 12A-12D). In analyzing the tissue biochemistry, […] were powdered under liquid N2 and extracted in chloroform:methanol. 0.6% NaCl solution was then added and the tubes were vortexed, centrifuged, and the organic phase was transferred to glass scintillation vials and dried under a stream of N2. Dried lipids were resuspended and triglycerides were quantified by enzymatic assay (Pointe Scientific, Inc.). Tissue glycogen was measured by the amyloglucosidase method. (See FIGS. 11A-11D.)
(§4) All data are represented as mean±SEM. Analysis of variance (ANOVA) and Bonferroni post-hoc tests were used to test for group differences (SYSTAT® for Windows). A P-value<0.05 was considered significant. Graphs were generated using PRISM® 4 for Windows (Graphpad Software).

[2] = system: High fat-fed male SPRAGUE-DAWLEY rats (DIO); assay: Example 1: chronic infusion, food consumption, body weight, body composition; type: in vivo, rat; settings: obesity-prone rats, vs vehicle control
Description: (§5) Low fat-fed rats (11% kcal from fat, D12329, Research Diets) were also implanted with pumps delivering vehicle. Food intake and body weight measurements were obtained weekly.
Rats were sacrificed by cardiac puncture under anesthesia. Triglyceride levels were measured on a COBAS Mira plasma analyzer (Roche), and leptin and insulin were assayed according to Linco Research rat RIA kits. Body composition was measured by chemical analysis (Covance Laboratories, Madison, Wis.).
All data are represented as mean±SEM. Analysis of variance was used to test for group differences.
The rats were fattened for 10 weeks prior to drug treatment. The high fat-fed rats were designated as obesity-prone (top 50% of weight gainers) or obesity-resistant (bottom 50%) based on the amount of weight gained through week 7.

[3] = system: Retired female breeder rats on high fat diet; assay: Example 4: amylin with prior or concurrent food restriction; type: in vivo, rat; settings: for Estimated Mean Weight change from treatment: amylin 100 μg/kg/day
Source text: Retired female breeder rats were maintained on a high fat diet (40% fat) for 8 weeks. Prior to drug treatment, rats were either ad-lib fed or food restricted to 95% of their starting body weight.

[4] = system: DIO (Levin) male rats; assay: Example 3: chronic amylin infusion, DIO rats; type: in vivo, rat; parameters: Ash: dose or concentration left out as unconfirmed
Description: as §1, §2, §3, §4

[5] = system: high fat-fed rats; assay: Example 2: three doses of amylin, food intake and body weight; type: in vivo, rat
Source text: as §5

[6] = system: DIO Levin rats; assay: Example 5: amylin versus pramlintide; type: in vivo, rat; settings: 76 nmol/kg/day, osmotic mini-pump, 24 days
Description: 48 DIO Levin rats (an in-bred model of diet induced obesity) were used in this study. […] Food intake and body weight was measured daily. […] The pair-fed groups were only allowed to consume the daily intakes of their respective drug-treated groups. For body composition, rats were scanned in a rodent NMR before treatment and after sacrifice (at the end of the study), allowing for the ability to calculate changes in carcass fat and protein (e.g., lean tissue).

[7] = in vivo; cited from earlier work
[8] = system: insulin-stimulated glycogen synthesis in soleus muscle; assay: Soleus Muscle Assay; type: cell-based, rat
Description: Concentrations of peptide dissolved in carrier-free buffers are determined by quantitative amino acid analysis, as described therein. The ability of compounds to act as agonists in this assay is determined by measuring EC50 values. […] Similar results were obtained with other agonist compounds listed above.

[9] = adsorption onto glass in liquid form; type: physicochemical; settings: glass container
Source text: These formulations may then be lyophilized. Surfactants can cause denaturation of protein, both of hydrophobic disruption and by salt bridge separation. Relatively low concentrations of surfactant may exert a potent denaturing activity, because of the strong interactions between surfactant moieties and the reactive sites on proteins. However, judicious use of this interaction can stabilize proteins against interfacial or surface denaturation. Surfactants which could further stabilize the peptide may optionally be present in the range of about 0.001 to 0.3% (w/v) of the total formulation and include polysorbate 80 (i.e., polyoxyethylene(20) sorbitan monooleate), CHAPS® (i.e., 3-[(3-cholamidopropyl) dimethylammonio] 1-propanesulfonate), Brij® (e.g., Brij 35, which is (polyoxyethylene (23) lauryl ether), poloxamer, or another non-ionic surfactant.

[10] = pramlintide 180 mcg TID, 1 day of treatment; cited from earlier work
[11] = amylin 300 mg/kg/day, 28-day pump
[12] = DIO rats, amylin 300 mg/kg/day, 28-day pump

In the case of “amylin: Amylin synthesized by Amylin Pharmaceuticals, Inc. by solid-phase chemistry; species not stated in the examples (KCNTATCATQRLANFLVHSSNNFGAILSSTNVGSNTY; Islet amyloid polypeptide; UniProt P10997 34-70, looked up)”, the “weight gain compared to vehicle rats” value [1] is reported as “significant reduction in weight gain”, the Moisture [1, 11] is reported as 67.57 ± 0.7 % and the Protein [1, 11] is reported as 20.67 ± 0.74%. For the same molecule, the Weight [1, 11] was 392.25* g, the Fat ([1]; amylin, 28-day pump) was 7.2 ± 1.5 % and the percent body fat ([1]; relative to pair-fed) was “lower percent body fat relative to pair-fed”. The “protein (body composition)” value [2] was “increase in protein”, the “Estimated Mean Weight change from treatment” value (“Estimated Mean Weight change” for short) ([3]; Ad-lib prior, Ad-lib during) was -21.8 ± 1.4 g and the “Estimated Mean Weight change” value ([3]; Ad-lib prior, Restricted during) was -23.1 ± 2.3 g. The “Estimated Mean Weight change” value ([3]; Restricted prior, Ad-lib during) was -18.2 ± 2.5 g, the “Estimated Mean Weight change” value ([3]; Restricted prior, Restricted during) was -17.1 ± 2.0 g and the body weight ([3]; all treatment conditions) was “significantly reduced body weight under all treatment conditions”. For the same molecule, the food intake ([3]; vs vehicle treated counterparts) was “ate less than their vehicle treated counterparts”, the percent body fat ([4]; DIO rats) was “significant decrease in percent body fat” and the percent protein ([4]; DIO rats) was “significant preservation or gain in percent protein”. The “weight gain compared to vehicle rats” value ([4]; DIO rats) was “significant reduction in weight gain”, the Ash ([4]; DIO rats, 28-day pump) was 1.65 ± 0.34% and the Fat [4, 12] was 24.3 ± 6.5 %. For the same molecule, the Moisture [4, 12] was 56.68 ± 4.4 %, the Protein [4, 12] was 18.09 ± 1.68 % and the Weight [4, 12] was 548.94* g. For the same molecule, the muscle glycogen content ([4]; rat, in vivo) was “significantly reduced muscle glycogen content”, the body weight gain ([5]; 30 μg/kg/day) was “reduction in body weight gain” and the “effects on food intake and body weight” value ([5]; 30, 100, 300 μg/kg/day) was “dose-dependent”. The body composition [6] was “favorable effects on body composition”, the body weight gain [6] was “significant effect on slowing body weight gain” and the “effect on food intake tapers off after” value [7] was 60 min. For the same molecule, the “onset of effect on food intake” value [7] was ≤ 30 min.

For `CC[C@H](C)[C@H](NC(=O)[C@@H]1CCCN1C(=O)CNC(=O)[C@H](Cc1ccccc1)NC(=O)[C@H](CC(N)=O)NC(=O)[C@H](CC(N)=O)NC(=O)[C@H](CO)NC(=O)[C@H](CO)NC(=O)[C@H](Cc1c[nH]cn1)NC(=O)[C@@H](NC(=O)[C@H](CC(C)C)NC(=O)[C@H](Cc1ccccc1)NC(=O)[C@H](CC(N)=O)NC(=O)[C@H](C)NC(=O)[C@H](CC(C)C)NC(=O)[C@H](CCCNC(=N)N)NC(=O)[C@H](CCC(N)=O)NC(=O)[C@@H](NC(=O)[C@H](C)NC(=O)[C@@H]1CSSC[C@H](NC(=O)[C@@H](N)CCCCN)C(=O)N[C@@H](CC(N)=O)C(=O)N[C@@H]([C@@H](C)O)C(=O)N[C@@H](C)C(=O)N[C@@H]([C@@H](C)O)C(=O)N1)[C@@H](C)O)C(C)C)C(=O)N[C@@H](CC(C)C)C(=O)N1CCC[C@H]1C(=O)N1CCC[C@H]1C(=O)N[C@H](C(=O)N[C@@H](CC(N)=O)C(=O)N[C@H](C(=O)NCC(=O)N[C@@H](CO)C(=O)N[C@@H](CC(N)=O)C(=O)N[C@H](C(=O)N[C@@H](Cc1ccc(O)cc1)C(N)=O)[C@@H](C)O)C(C)C)[C@@H](C)O` [^25, 28, 29Pro-h-Amylin], the “amylin agonist activity (in words)” value [8] was “act as amylin agonists”, the “antagonist activity in soleus muscle assay (in words)” value [8] was “negligible antagonist activity” and the “tendency to adsorb onto glass” value [9] was “does not have a tendency to adsorb onto the glass”. For the same molecule, the “reduction in mean daily caloric intake” value [10] was ~19%, the body composition [6] was “favorable effects on body composition” and the body weight gain [6] was “significant effect on slowing body weight gain”.

For “CSNLSTCVLGKLSQELHKLQTYPRTNTGSGTP [salmon calcitonin]”, the “delayed effect, peak levels still maintained at” value [7] is given as 240 min.

Reference: patent publication US8748375B2 (Amylin Pharmaceuticals, LLC, priority 2009, dated 2014)
